Experiments:
Assay in all cases: relative viability (nuclei count vs DMSO), 5 days (fraction); higher = more cells survive
[1] = compound: C[C@@H](N)c1ccc(C(=O)Nc2ccnc3[nH]ccc23)cc1 + CC(C)C[C@H](NC(=O)[C@H](Cc1ccccc1)NC(=O)c1cnccn1)B(O)O [Bortezomib] (partner 0.002 µM)
Summary of the method: (§1)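 Lung cancer cell lines were seeded in 1536-well plates and dosed by pin tool the next day, with either a single drug or a fixed anchor-drug dose combined with five library-drug doses (not always all listed) spaced in √10 steps. Five days later, one step fixed the cells and stained their nuclei (final 0.05% Triton X-100, 1% formaldehyde, 1 ug/ml Hoechst), and nuclei were counted on 4× images. Relative viability is the nuclei count in treated wells divided by the count in vehicle wells, and each value is the median of duplicate plates.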

[2] = compound: C[C@@H](N)c1ccc(C(=O)Nc2ccnc3[nH]ccc23)cc1 + COc1cc2c(Oc3ccc(NC(=O)C4(C(=O)Nc5ccc(F)cc5)CC4)cc3F)ccnc2cc1OCCCN1CCOCC1 [Foretinib] (partner 0.25 µM)
Summary of the method: as §1

[3] = compound: C1CNCCC1C2=CC(=NN2)C3=CC=NC=C3 + Nc1ncn([C@H]2C[C@H](O)[C@@H](CO)O2)c(=O)n1 [Decitabine] (partner 2 µM)
Summary of the method: as §1

| Cell Line | relative viability ([1]; first compound 0.04 µM) | relative viability ([1]; first compound 0.1265 µM) | relative viability ([1]; first compound 0.4 µM) | relative viability ([1]; first compound 1.265 µM) | relative viability ([1]; first compound 4 µM) | relative viability ([2]; first compound 0.04 µM) | relative viability ([2]; first compound 0.1265 µM) | relative viability ([2]; first compound 0.4 µM) | relative viability ([2]; first compound 1.265 µM) | relative viability ([2]; first compound 4 µM) | relative viability ([3]; first compound 0.08 µM) | relative viability ([3]; first compound 0.8 µM) | relative viability ([3]; first compound 2.53 µM) | relative viability ([3]; first compound 8 µM) |
| --- | --- | --- | --- | --- | --- | --- | --- | --- | --- | --- | --- | --- | --- | --- |
| NCI-H1563 | 0.776 | 0.798 | 0.777 | 0.699 | 0.897 | 0.974 | 0.986 | 0.876 | 0.923 | 0.914 | – | – | – | – |
| NCI-H596 | 1.05 | 0.856 | 1.14 | 1.23 | 1.26 | 1.07 | 0.82 | 0.772 | – | 0.761 | 1.03 | 1.25 | 0.922 | 1.21 |
| NCI-H2087 | 0.49 | 0.783 | 0.719 | 0.499 | 0.686 | 1.16 | 1.07 | 1.1 | – | 0.983 | 0.339 | 0.279 | 0.267 | 0.292 |
| NCI-H661 | 0.739 | 0.844 | 0.94 | 0.76 | 0.737 | 0.947 | 1.09 | 1.03 | 0.923 | 0.855 | 0.549 | 0.57 | 0.541 | 0.541 |
| NCI-H522 | – | – | – | – | – | – | – | – | – | – | 0.619 | 0.646 | 0.552 | 0.789 |
| EMC-BAC-2 | 0.882 | 1.21 | 1.19 | 1.08 | 0.968 | 1.08 | 1.05 | 1.11 | 0.967 | 0.903 | – | 1.06 | 1 | 1.03 |
| NCI-H1355 | 1.04 | 1.22 | 1.35 | – | 1.26 | 1.01 | 1.02 | 1.09 | 1.1 | 0.924 | 0.374 | 0.36 | 0.395 | 0.354 |
| NCI-H23 | 1.21 | 1.17 | 1.11 | – | 1.03 | 0.985 | 1.09 | 0.981 | – | 1.01 | 0.306 | – | 0.301 | 0.377 |
| NCI-H1651 | 1.02 | 0.998 | 0.997 | 0.795 | 0.934 | 0.883 | 0.908 | 0.882 | 0.987 | 0.782 | 0.586 | 0.566 | 0.686 | 0.501 |
| NCI-H1975 | 0.314 | 0.365 | 0.37 | 0.308 | 0.244 | 1.06 | 0.854 | 0.847 | 0.681 | 0.653 | 0.369 | 0.355 | 0.399 | 0.363 |
| COR-L23 | 0.827 | 0.983 | 1.03 | 0.779 | 0.341 | 0.943 | 1.01 | 1.02 | 0.938 | 0.534 | 0.424 | 0.429 | 0.516 | 0.47 |
| HCC-44 | 0.863 | 0.871 | 0.959 | 1.08 | 0.78 | – | – | – | – | – | 0.957 | 0.989 | 0.961 | 0.942 |
| LOU-NH91 | 0.504 | 0.56 | 0.515 | 0.468 | 0.429 | 0.814 | 0.981 | 0.851 | 0.804 | 0.683 | 0.84 | 0.851 | 0.832 | 0.79 |
| NCI-H441 | 0.599 | 0.472 | 0.693 | 0.57 | 0.449 | 0.988 | 1.05 | 1.02 | – | 0.843 | 0.226 | 0.255 | 0.243 | 0.248 |
| NCI-H647 | 0.846 | 1.02 | 1.09 | 0.868 | 0.869 | 1.22 | 1.06 | 1.25 | 1.21 | 0.895 | 0.296 | 0.378 | 0.338 | 0.392 |
| NCI-H1915 | 0.988 | 1.01 | 1.01 | – | 0.823 | 1.17 | 1.11 | 1.12 | – | 0.984 | 0.267 | 0.249 | 0.26 | 0.263 |
| NCI-H1299 | 1.02 | 0.998 | 0.958 | 0.938 | 0.827 | 1.09 | 1.07 | 0.985 | 0.951 | 0.886 | – | – | – | – |
| NCI-H1734 | 0.847 | 0.915 | 0.911 | – | 0.759 | 0.996 | 0.95 | 0.867 | 0.855 | 0.683 | 0.452 | 0.524 | 0.488 | 0.497 |
| NCI-H1993 | 1.19 | 1.13 | – | 0.943 | 1.15 | 0.785 | 0.732 | 0.781 | 0.924 | 0.714 | 0.573 | 0.576 | 0.473 | 0.7 |
| LK-2 | – | – | – | – | – | 1.32 | – | 1.49 | – | 1.46 | – | 0.237 | 0.404 | 0.358 |
| NCI-H358 | – | – | – | – | – | 0.675 | 0.688 | 0.651 | 0.662 | 0.566 | 0.224 | 0.226 | 0.21 | 0.217 |
| SK-MES-1 | – | – | – | – | – | 0.849 | 1.07 | 0.847 | 0.785 | 0.78 | 0.29 | 0.436 | 0.397 | 0.339 |
| NCI-H1648 | – | – | – | – | – | – | – | – | – | – | 0.453 | 0.572 | – | 0.573 |
| EBC-1 | 0.573 | 0.662 | 0.558 | 0.444 | 0.487 | 0.0976 | 0.0967 | 0.0934 | 0.0803 | 0.092 | – | – | – | – |
| NCI-H1395 | – | – | – | – | – | 1.07 | 1.14 | 1.06 | 0.995 | 0.909 | 0.705 | 0.714 | 0.751 | 0.755 |
| NCI-H2228 | 1.42 | 1.18 | 1.31 | 0.932 | 1.01 | 1.03 | 0.743 | 1.02 | 0.911 | 0.866 | – | – | – | – |
| IA-LM | 0.977 | 0.87 | 1.08 | 1.07 | 0.677 | 1.28 | 1.33 | 1.43 | 1.2 | 1.08 | – | – | – | – |
| NCI-H1703 | 0.376 | 0.281 | 0.256 | – | 0.236 | 0.409 | 0.274 | 0.333 | – | 0.324 | – | – | – | – |
| NCI-H2170 | – | – | – | – | – | 1.02 | 1 | 0.936 | 0.922 | 0.937 | 0.442 | 0.446 | 0.487 | 0.529 |
| NCI-H1793 | – | – | – | – | – | 0.692 | 0.829 | 0.946 | – | 0.83 | 0.338 | – | 0.489 | 0.626 |
